Columns and labels:
[1] = system: postmenopausal women with low BMD at lumbar vertebrae, total hip or femoral neck; experiment: Randomized multicenter study, BMD measured by DXA in postmenopausal women with low BMD; assay type: in vivo, human; conditions: open label active control arm; for Femoral Neck BMD % Change from Baseline, Mean / Lumbar Vertebrae BMD % Change from Baseline, Mean / Total Hip BMD % Change from Baseline, Mean: 12 months; for mean percent change of lumbar vertebrae BMD from pretreatment baseline: month 6; for mean percent change of distal ⅓ radius BMD from pretreatment baseline: month 12
Procedure: This example describes in vivo studies wherein an anti-sclerostin antibody improved bone mineral density in postmenopausal women.
A multicenter, international, randomized, parallel group study in postmenopausal women with low BMD at lumbar vertebrae, total hip or femoral neck was conducted. 419 subjects were randomized to receive one of five regimens of an anti-sclerostin antibody, placebo, open label alendronate (ALN), or open label teriparatide (TPTD) for 12 months. The placebo group was further randomized to match the schedules corresponding to the five anti-sclerostin antibody regimens. The subject distribution was as follows: 52 subjects to the placebo arm, 51 subjects to ALN arm, 55 subjects to TPTD arm, and 51, 54, 51, 53, and 52 subjects to anti-sclerostin antibody 70 mg QM, 140 mg Q3M, 140 mg QM, 210 mg Q3M, and 210 mg QM arms, respectively. 383 subjects completed the 12 months of study. Among all subjects enrolled in the study, the mean age was 66.8 years old, 86.4% of subjects were Caucasian, and the mean pretreatment baseline lumbar vertebrae and total hip BMD T-scores were −2.29 and −1.53, respectively. The primary analysis occurred after all subjects had the opportunity to complete the month 12 study visit. BMD was measured by DXA. Overall, the proportions of patients reporting adverse events were balanced between placebo arm and anti-sclerostin antibody arms.

[2] = system: bone resorption marker (CTX) and bone formation markers (P1NP, BSAP, OC); experiment: Bone turnover markers in the same study (serum CTX, P1NP, BSAP, OC); assay type: in vivo, human; conditions: open label active control
Description: A subject's physiological response to an anti-sclerostin antibody can be gauged by monitoring bone marker levels. Bone markers are products created during the bone remodeling process and are released by bone, osteoblasts, and/or osteoclasts. Fluctuations in bone resorption and/or bone formation “marker” levels imply changes in bone remodeling/modeling. The International Osteoporosis Foundation (IOF) recommends using bone markers to monitor bone density therapies (see, e.g., Delmas et al., Osteoporos Int., Suppl. 6:S2-17 (2000), incorporated herein by reference). Markers indicative of bone resorption (or osteoclast activity) include, for example, C-telopeptide (e.g., C-terminal telopeptide of type 1 collagen (CTX) or serum cross-linked C-telopeptide), N-telopeptide (N-terminal telopeptide of type 1 collagen (NTX)), deoxypyridinoline (DPD), pyridinoline, urinary hydroxyproline, galactosyl hydroxylysine, and tartrate-resistant acid phosphatase (e.g., serum tartrate-resistant acid phosphatase isoform 5b). Bone formation/mineralization markers include, but are not limited to, bone-specific alkaline phosphatase (BSAP), peptides released from N- and C-terminal extension of type I procollagen (P1NP, PICP), and osteocalcin (OC). Several kits are commercially-available to detect and quantify markers in clinical samples, such as urine and blood.
A multicenter, international, randomized, parallel group study in postmenopausal women with low BMD at lumbar vertebrae, total hip or femoral neck was conducted. 419 subjects were randomized to receive one of five regimens of an anti-sclerostin antibody, placebo, open label alendronate (ALN), or open label teriparatide (TPTD) for 12 months. The placebo group was further randomized to match the schedules corresponding to the five anti-sclerostin antibody regimens. […] BMD was measured by DXA. […]

SMILES	Femoral Neck BMD % Change from Baseline, Mean [1]	Lumbar Vertebrae BMD % Change from Baseline, Mean [1]	Total Hip BMD % Change from Baseline, Mean [1]	mean percent change of lumbar vertebrae BMD from pretreatment baseline [1]	mean percent change of distal ⅓ radius BMD from pretreatment baseline [1]	adaptive response (bone formation markers falling to approximately baseline within two to six months) [2]	bone formation markers over the course of treatment [2]
NCCCC(O)(P(=O)(O)O)P(=O)(O)O [ALN, alendronate]	1.2%	4.1%	1.9%	2.6%	−0.3%	not observed	
CC[C@H](C)[C@H](NC(=O)[C@H](CCC(=O)O)NC(=O)[C@H](CO)NC(=O)[C@@H](NC(=O)[C@@H](N)CO)C(C)C)C(=O)N[C@@H](CCC(N)=O)C(=O)N[C@@H](CC(C)C)C(=O)N[C@@H](CCSC)C(=O)N[C@@H](Cc1cnc[nH]1)C(=O)N[C@@H](CC(N)=O)C(=O)N[C@@H](CC(C)C)C(=O)NCC(=O)N[C@@H](CCCCN)C(=O)N[C@@H](Cc1cnc[nH]1)C(=O)N[C@@H](CC(C)C)C(=O)N[C@@H](CC(N)=O)C(=O)N[C@@H](CO)C(=O)N[C@@H](CCSC)C(=O)N[C@@H](CCC(=O)O)C(=O)N[C@@H](CCCN=C(N)N)C(=O)N[C@H](C(=O)N[C@@H](CCC(=O)O)C(=O)N[C@@H](Cc1c[nH]c2ccccc12)C(=O)N[C@@H](CC(C)C)C(=O)N[C@@H](CCCN=C(N)N)C(=O)N[C@@H](CCCCN)C(=O)N[C@@H](CCCCN)C(=O)N[C@@H](CC(C)C)C(=O)N[C@@H](CCC(N)=O)C(=O)N[C@@H](CC(=O)O)C(=O)N[C@H](C(=O)N[C@@H](Cc1cnc[nH]1)C(=O)N[C@@H](CC(N)=O)C(=O)N[C@@H](Cc1ccccc1)C(=O)O)C(C)C)C(C)C [TPTD, teriparatide]	1.1%	7.1%	1.3%	4.8%	−1.7%	not observed	remained elevated
